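Cells were grown in 96-well plates and exposed to each compound for 48 hours at five concentrations; endpoints were interpolated linearly between bracketing concentrations, or set to the highest concentration if not reached. The concentration for 50% growth inhibition is given as GI50.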 Active and inactive are the calls of the source. No stated cut-off is given here; in the data, active = GI50 up to about 1.1 µM and inactive = higher.
What was measured:
Experiment in all cases: NCI-60 cell line screen, 48 h
[1] = tested on: 786-0
[2] = tested on: A549
[3] = tested on: ACHN
[4] = tested on: EKVX
[5] = tested on: HCT-116
[6] = tested on: HCT-15
[7] = tested on: HOP-92
[8] = tested on: HT-29
[9] = tested on: Malme-3M
[10] = tested on: NCI-H23
[11] = tested on: NCI-H522
[12] = tested on: OVCAR-3
[13] = tested on: OVCAR-5
[14] = tested on: RXF 393
[15] = tested on: SNB-19
[16] = tested on: SNB-75
[17] = tested on: SW-620
[18] = tested on: U-251
[19] = tested on: UACC-257
[20] = tested on: UO-31

Row | Compound | GI50 [1] | GI50 [2] | GI50 [3] | GI50 [4] | GI50 [5] | GI50 [6] | GI50 [7] | GI50 [8] | GI50 [9] | GI50 [10] | GI50 [11] | GI50 [12] | GI50 [13] | GI50 [14] | GI50 [15] | GI50 [16] | GI50 [17] | GI50 [18] | GI50 [19] | GI50 [20]
1 | CCCCCCCCCCCCCCC(O)C[N+](C)(CCO)CCO (centres undefined) | 1.98 µM (inactive) | 10.2 µM (inactive) | 6.01 µM (inactive) | 17.7 µM (inactive) | 5.79 µM (inactive) | 5.96 µM | 0.885 µM (active) | 2.12 µM (inactive) | 2.06 µM (inactive) | 4.49 µM (inactive) | 1.64 µM (inactive) | 3.13 µM (inactive) | 2.46 µM (inactive) | 1.41 µM (inactive) | 1.49 µM (inactive) | 0.746 µM (active) | 6.22 µM (inactive) | 1.53 µM (inactive) | 11.1 µM (inactive) | 4.27 µM (inactive)
2 | COC(=O)C1CC(C(=O)OC)c2nc3cc([N+](=O)[O-])ccc3nc21 (centres undefined) | > 87.9 µM (inactive) | 43.1 µM (inactive) | 45.9 µM (inactive) | > 81.3 µM (inactive) | 33.7 µM (inactive) | 17.8 µM | > 100 µM (inactive) | 51.3 µM (inactive) | > 100 µM (inactive) | > 61.5 µM (inactive) | 7.93 µM (inactive) | 33.1 µM (inactive) | > 100 µM (inactive) | 31.6 µM (inactive) | > 67.9 µM (inactive) | > 61 µM (inactive) | 89.9 µM (inactive) | 98.2 µM (inactive) | 55.6 µM (inactive) | 33.7 µM (inactive)
3 | CC(=O)Nc1ccc2c(c1)/C(=C\c1ccc([N+](C)(C)C)cc1)c1ccccc1-2 | 77.8 µM (inactive) | 33.7 µM (inactive) | > 100 µM (inactive) | 26.5 µM (inactive) | 85.3 µM (inactive) | > 100 µM | 18.1 µM (inactive) | 35.5 µM (inactive) | 39.3 µM (inactive) | 64.4 µM (inactive) | 32.9 µM (inactive) | 36.5 µM (inactive) | 18.8 µM (inactive) | > 100 µM (inactive) | 23.6 µM (inactive) | 28.1 µM (inactive) | 44.1 µM (inactive) | 18.4 µM (inactive) | 30.6 µM (inactive) | 29.6 µM (inactive)
4 | BrC1=CC=C2NC=CC3=CC=NC1C32 (centres undefined) | 8.34 µM (inactive) |  | 7.26 µM (inactive) | 39.5 µM (inactive) | 6.03 µM (inactive) | 18.9 µM | 15.7 µM (inactive) | 14.9 µM (inactive) | 27.7 µM (inactive) | 7.71 µM (inactive) | 11.5 µM (inactive) | 22 µM (inactive) | 19.1 µM (inactive) | 16 µM (inactive) | 8.51 µM (inactive) | 18.3 µM (inactive) | 8.95 µM (inactive) | 7.67 µM (inactive) | 33.5 µM (inactive) | 14.5 µM (inactive)
5 | Cc1ccccc1NC(=O)O/N=C(\Cl)C(C)C | 1.81 µM (inactive) | 19.1 µM (inactive) | 1.69 µM (inactive) | 2.29 µM (inactive) | 2.18 µM (inactive) | 2.09 µM | 2.28 µM (inactive) | 5.56 µM (inactive) | 2.36 µM (inactive) | 16.7 µM (inactive) | 1.68 µM (inactive) | 4.29 µM (inactive) | 20.9 µM (inactive) | 12.6 µM (inactive) | 20.8 µM (inactive) | 17.1 µM (inactive) | 1.82 µM (inactive) | 19.4 µM (inactive) | 14.9 µM (inactive) | 17.4 µM (inactive)
6 | CCOP(=O)(Nc1ccccc1P(=O)(OCC)OCC)OCC | > 100 µM (inactive) | > 100 µM (inactive) | > 100 µM (inactive) | > 100 µM (inactive) | > 100 µM (inactive) | > 100 µM | > 100 µM (inactive) | > 100 µM (inactive) | > 100 µM (inactive) | > 100 µM (inactive) | > 100 µM (inactive) | > 100 µM (inactive) | > 100 µM (inactive) | > 100 µM (inactive) | > 100 µM (inactive) | > 100 µM (inactive) | > 100 µM (inactive) | > 100 µM (inactive) | > 100 µM (inactive) | > 100 µM (inactive)
7 | C[C@H](N)C(=O)Nc1ccc(-c2nc3ccccc3s2)cc1 | 15.7 µM (inactive) | 15.6 µM (inactive) | 17.4 µM (inactive) | 11.8 µM (inactive) | 15.2 µM (inactive) | 17.7 µM | 26.4 µM (inactive) | 20.9 µM (inactive) | 19.1 µM (inactive) | 32.2 µM (inactive) | 18.5 µM (inactive) | 18.3 µM (inactive) | 18.7 µM (inactive) | 29.3 µM (inactive) | 22.4 µM (inactive) | 18 µM (inactive) | 17.2 µM (inactive) | 16.9 µM (inactive) | 39.1 µM (inactive) | 12.3 µM (inactive)
8 | O=C1N[C@H]2C(=O)c3c(Cl)sc(Cl)c3[C@H]2O1 | 14.2 µM (inactive) | 19.5 µM (inactive) | 7.6 µM (inactive) | 2 µM (inactive) | 3.66 µM (inactive) | 3.86 µM | 7.45 µM (inactive) | 2.46 µM (inactive) | 14.3 µM (inactive) | 5.94 µM (inactive) | 3.13 µM (inactive) | 1.92 µM (inactive) | 19.4 µM (inactive) | 3.42 µM (inactive) | 15.2 µM (inactive) | 15.5 µM (inactive) | 2.18 µM (inactive) | 3.32 µM (inactive) | 6.7 µM (inactive) | 1.71 µM (inactive)
9 | CC1(C)OC(=S)N(c2ccccc2)C12C=Cc1cc3ccccc3nc1S2 (centres undefined) | > 100 µM (inactive) | > 100 µM (inactive) | > 100 µM (inactive) | > 100 µM (inactive) | > 100 µM (inactive) | > 100 µM | 40.3 µM (inactive) | 40.4 µM (inactive) | > 100 µM (inactive) | 29.6 µM (inactive) | 32.6 µM (inactive) | > 100 µM (inactive) | > 100 µM (inactive) | 55.6 µM (inactive) | > 100 µM (inactive) | 97.1 µM (inactive) | > 100 µM (inactive) | > 100 µM (inactive) | > 100 µM (inactive) | 73.5 µM (inactive)
10 | CC(=O)Oc1cc2c(=O)oc3c(OC(C)=O)c(OC(C)=O)c(OC(C)=O)c4c(=O)oc(c1OC(C)=O)c2c34 | 38 µM (inactive) | > 100 µM (inactive) | 48.3 µM (inactive) | 74 µM (inactive) | 24 µM (inactive) | > 100 µM | 25.2 µM (inactive) | 37.9 µM (inactive) | 29.4 µM (inactive) | > 100 µM (inactive) | 37.4 µM (inactive) | > 100 µM (inactive) | 94.6 µM (inactive) | 6.18 µM (inactive) | 73.8 µM (inactive) | 45.9 µM (inactive) | 34.5 µM (inactive) | 36.6 µM (inactive) | 45.5 µM (inactive) | 97.7 µM (inactive)
11 | COc1cc2c(c(OC)c1OC)C(=O)[C@@H]1[C@H]2N1C(=O)NCCCl | > 100 µM (inactive) | 58.2 µM (inactive) | 50.5 µM (inactive) | 53 µM (inactive) | 41.7 µM (inactive) | 36.1 µM | > 100 µM (inactive) | 36 µM (inactive) | 64.7 µM (inactive) | 43.4 µM (inactive) | 49.2 µM (inactive) | 38.4 µM (inactive) | > 100 µM (inactive) | 53.3 µM (inactive) | > 100 µM (inactive) | 40.9 µM (inactive) | > 100 µM (inactive) | 37.1 µM (inactive) | 79.8 µM (inactive) | 73.5 µM (inactive)
12 | CN1CCN([C@H]2C[C@H]3[C@@H]4CC=C5C[C@@H](N6CCCC6)CC[C@]5(C)[C@H]4CC[C@]3(C)[C@H]2O)CC1 | 38.4 µM (inactive) | 37.8 µM (inactive) | > 100 µM (inactive) | > 100 µM (inactive) | 22 µM (inactive) | 38.4 µM | 84.9 µM (inactive) | 8 µM (inactive) | 19.9 µM (inactive) | > 100 µM (inactive) | > 100 µM (inactive) | > 100 µM (inactive) | 50.2 µM (inactive) | 10.7 µM (inactive) | 90.4 µM (inactive) | > 100 µM (inactive) | 33.4 µM (inactive) | 59.2 µM (inactive) | 23.2 µM (inactive) | 94.4 µM (inactive)
13 | O=[N+]([O-])c1cccc(/C=N/NC2=CS(=O)(=O)C=C2)c1 | > 100 µM (inactive) | > 100 µM (inactive) | > 100 µM (inactive) | > 100 µM (inactive) | > 100 µM (inactive) | > 100 µM | > 100 µM (inactive) | > 100 µM (inactive) | > 100 µM (inactive) | > 100 µM (inactive) | > 100 µM (inactive) | > 100 µM (inactive) | > 100 µM (inactive) | > 100 µM (inactive) | > 100 µM (inactive) | 91 µM (inactive) | > 100 µM (inactive) | > 100 µM (inactive) | > 100 µM (inactive) | > 100 µM (inactive)
14 | COc1ccc(-c2cc(=O)c3c(OC)c(OC)c(OC)cc3o2)cc1 | 19.9 µM (inactive) | 27.1 µM (inactive) | 24.4 µM (inactive) | 37.4 µM (inactive) | 32.6 µM (inactive) | 32.7 µM | 20.6 µM (inactive) | 28.4 µM (inactive) | 38 µM (inactive) | 40.6 µM (inactive) | 23.7 µM (inactive) | 26.8 µM (inactive) | 44 µM (inactive) | 30.1 µM (inactive) | 45 µM (inactive) | 26.9 µM (inactive) | 36.8 µM (inactive) | 26.3 µM (inactive) | 40.8 µM (inactive) | 19 µM (inactive)
